# According to US8574563B2 (Bristol-Myers Squibb Company, priority 2006, dated 2013):
# Test system: HCV 1b-377-neo replicon cells
# Assay: HCV replicon assay, HCV 1b-377-neo replicon cells (1b FRET)
# Type: cell-based, Hepatitis C virus genotype 1b
# Details: HCV 1b-377-neo replicon cells; HCV 1b genotype
# Procedure, shortened: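 Compounds tested in HCV genotype 1b-377-neo replicon cells with a FRET read-out. Cells resistant to a reference NS5A inhibitor through a Y2065H NS5A mutation were run alongside wild-type cells.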
row,Structure (SMILES),"EC50 range against HCV 1b (Table 2, Range)"
1,"COC(=O)N[C@@H](C(=O)N1CCC[C@H]1c1ncc(-c2ccc(-c3ccc(-c4cnc([C@@H]5CCCN5C(=O)Cc5ccccc5OC)[nH]4)cc3)cc2)[nH]1)c1ccccc1 [Example 84-65, methyl ((1R)-2-((2S)-2-(5-(4′-(2-((2S)-1-((2-methoxyphenyl)acetyl)-2-pyrrolidinyl)-1H-imidazol-5-yl)-4-biphenylyl)-1H-imidazol-2-yl)-1-pyrrolidinyl)-2-oxo-1-phenylethyl)carbamate]",C-D

# Same assay, conditions: Hepatitis C virus, HCV 1b-377-neo replicon cells; HCV 1b genotype; read-out: EC50 range against HCV 1b (Table 2, Range)
row,Structure (SMILES),EC50
1,"COC(=O)N[C@@H](C(=O)N1CCC[C@H]1c1ncc(-c2ccc(-c3ccc(-c4cnc([C@@H]5CCCN5C(=O)C(c5csc(C)n5)N(C)C)[nH]4)cc3)cc2)[nH]1)c1ccccc1 (stereo partly drawn) [Example 84-48, methyl ((1R)-2-((2S)-2-(5-(4′-(2-((2S)-1-((dimethylamino)(2-methyl-1,3-thiazol-4-yl)acetyl)-2-pyrrolidinyl)-1H-imidazol-5-yl)-4-biphenylyl)-1H-imidazol-2-yl)-1-pyrrolidinyl)-2-oxo-1-phenylethyl)carbamate]",0.001 to 0.999 nM
2,"COC(=O)N[C@@H](Cc1ccccn1)C(=O)N1CCC[C@H]1c1ncc(-c2ccc(-c3ccc(-c4cnc([C@@H]5CCCN5C(=O)[C@H](Cc5ccccn5)NC(=O)OC)[nH]4)cc3)cc2)[nH]1 [cj-130, methyl ((1S)-2-((2S)-2-(5-(4′-(2-((2S)-1-((2S)-2-((methoxycarbonyl)amino)-3-(2-pyridinyl)propanoyl)-2-pyrrolidinyl)-1H-imidazol-5-yl)-4-biphenylyl)-1H-imidazol-2-yl)-1-pyrrolidinyl)-2-oxo-1-(2-pyridinylmethyl)ethyl)carbamate]",0.001 to 0.999 nM
3,"CN(C)[C@H](Cc1ccccc1)C(=O)N1CCC[C@H]1c1ncc(-c2ccc(-c3ccc(-c4cnc([C@@H]5CCCN5C(=O)[C@@H](Cc5ccccc5)N(C)C)[nH]4)cc3)cc2)[nH]1 [cj-147, (2R,2′R)-1,1′-(4,4′-biphenyldiylbis(1H-imidazole-5,2-diyl(2S)-2,1-pyrrolidinediyl))bis(N,N-dimethyl-1-oxo-3-phenyl-2-propanamine)]",1 to 99 nM
4,"COC(=O)N[C@H](C(=O)N1CCC[C@H]1c1nc(-c2ccc(-c3ccc(-c4c[nH]c([C@@H]5CCCN5C(=O)CNC5CCOCC5)n4)cc3)cc2)c[nH]1)C(C)C [Example F51, methyl ((1S)-2-methyl-1-(((2S)-2-(4-(4′-(2-((2S)-1-(N-(tetrahydro-2H-pyran-4-yl)glycyl)-2-pyrrolidinyl)-1H-imidazol-4-yl)-4-biphenylyl)-1H-imidazol-2-yl)-1-pyrrolidinyl)carbonyl)propyl)carbamate]",0.001 to 0.999 nM
5,"COC(=O)N[C@@H](C(=O)N(C)[C@@H](C)c1ncc(-c2ccc(-c3ccc(-c4cnc([C@@H]5CCCN5C(=O)[C@@H](c5ccccc5)N5CCCCC5)[nH]4)cc3)cc2)[nH]1)c1ccccc1 [Example 131.1-2, methyl ((1R)-2-(methyl((1S)-1-(5-(4′-(2-((2S)-1-((2R)-2-phenyl-2-(1-piperidinyl)acetyl)-2-pyrrolidinyl)-1H-imidazol-5-yl)-4-biphenylyl)-1H-imidazol-2-yl)ethyl)amino)-2-oxo-1-phenylethyl)carbamate]",0.001 to 0.999 nM
6,"COC(=O)N[C@@H](C(=O)N1CCC[C@H]1c1ncc(-c2ccc(-c3ccc(-c4cnc([C@@H]5CCCN5C(=O)[C@@](C)(O)c5ccccc5F)[nH]4)cc3)cc2)[nH]1)c1ccccc1 [Example 84-2, methyl ((1R)-2-((2S)-2-(5-(4′-(2-((2S)-1-((2S)-2-(2-fluorophenyl)-2-hydroxypropanoyl)-2-pyrrolidinyl)-1H-imidazol-5-yl)-4-biphenylyl)-1H-imidazol-2-yl)-1-pyrrolidinyl)-2-oxo-1-phenylethyl)carbamate]",0.001 to 0.999 nM
7,"COC(=O)N[C@@H](C)C(=O)N1CCC[C@H]1c1ncc(-c2ccc(-c3ccc(-c4cnc([C@@H]5CCCN5C(=O)[C@H](Cc5cn(Cc6ccccc6)cn5)NC(=O)OC)[nH]4)cc3)cc2)[nH]1 [cj-77, methyl ((1S)-2-((2S)-2-(5-(4′-(2-((2S)-1-((2S)-3-(1-benzyl-1H-imidazol-4-yl)-2-((methoxycarbonyl)amino)propanoyl)-2-pyrrolidinyl)-1H-imidazol-5-yl)-4-biphenylyl)-1H-imidazol-2-yl)-1-pyrrolidinyl)-1-methyl-2-oxoethyl)carbamate]",0.001 to 0.999 nM
8,"COC(=O)N[C@@H](C(=O)N1CCC[C@H]1c1ncc(-c2ccc(-c3ccc(-c4cnc([C@@H]5CCCN5C(=O)[C@@H]5C[C@@H](F)CN5)[nH]4)cc3)cc2)[nH]1)c1ccccc1 [Example 82, methyl ((1R)-2-((2S)-2-(5-(4′-(2-((2S)-1-((4R)-4-fluoro-L-prolyl)-2-pyrrolidinyl)-1H-imidazol-5-yl)-4-biphenylyl)-1H-imidazol-2-yl)-1-pyrrolidinyl)-2-oxo-1-phenylethyl)carbamate]",0.001 to 0.999 nM
9,"CCN(CC)[C@@H](C(=O)N1CCC[C@H]1c1ncc(-c2ccc(-c3ccc(-c4cnc([C@@H]5CCCN5C(=O)[C@@H](NC(=O)OC)C(C)C)[nH]4)cc3)cc2)[nH]1)c1ccccc1 [Example M58, methyl ((1S)-1-(((2S)-2-(5-(4′-(2-((2S)-1-((2R)-2-(diethylamino)-2-phenylacetyl)-2-pyrrolidinyl)-1H-imidazol-5-yl)-4-biphenylyl)-1H-imidazol-2-yl)-1-pyrrolidinyl)carbonyl)-2-methylpropyl)carbamate]",1 to 99 nM
10,"CCOC(=O)c1nc([C@@H]2CCCN2C(=O)[C@@H](c2ccccc2)N(C)C)[nH]c1-c1ccc(-c2ccc(-c3cnc([C@@H]4CCCN4C(=O)[C@@H](c4ccccc4)N(C)C)[nH]3)cc2)cc1 [Example J20, ethyl 2-((2S)-l-((2R)-2-(dimethylamino)-2-phenylacetyl)-2-pyrrolidinyl)-5-(4-(2-((2S)-1-((2R)-2-(dimethylamino)-2-phenylacetyl)-2-pyrrolidinyl)-1H-imidazol-5-yl)-4-biphenylyl)-1H-imidazole-4-carboxylate]",0.001 to 0.999 nM
11,"COC(=O)N[C@@H](C(=O)N1CCC[C@H]1c1ncc(-c2ccc(-c3ccc(-c4cnc([C@@H]5CCCN5C(=O)Cc5cccc(OC)c5)[nH]4)cc3)cc2)[nH]1)c1ccccc1 [Example 84-64, methyl ((1R)-2-((2S)-2-(5-(4′-(2-((2S)-1-((3-methoxyphenyl)acetyl)-2-pyrrolidinyl)-1H-imidazol-5-yl)-4-biphenylyl)-1H-imidazol-2-yl)-1-pyrrolidinyl)-2-oxo-1-phenylethyl)carbamate]",0.001 to 0.999 nM
12,"COC(=O)N[C@H](C(=O)N1C[C@H](O)C[C@H]1c1ncc(-c2ccc(-c3ccc(-c4cnc([C@@H]5C[C@@H](O)CN5C(=O)[C@@H](NC(=O)OC)C(C)C)[nH]4)cc3)cc2)[nH]1)C(C)C [JG-5, methyl ((1S)-1-(((2S,4R)-4-hydroxy-2-(5-(4′-(2-((2S,4R)-4-hydroxy-1-((2S)-2-((methoxycarbonyl)amino)-3-methylbutanoyl)-2-pyrrolidinyl)-1H-imidazol-5-yl)-4-biphenylyl)-1H-imidazol-2-yl)-1-pyrrolidinyl)carbonyl)-2-methylpropyl)carbamate]",0.001 to 0.999 nM
13,"O=C(CCN1CCCCC1)N1CCC[C@H]1c1ncc(-c2ccc(-c3ccc(-c4cnc([C@@H]5CCCN5C(=O)[C@@H](c5ccccc5)N5CCCCC5)[nH]4)cc3)cc2)[nH]1 [Example 107-7, 1-(3-oxo-3-((2S)-2-(5-(4′-(2-((2S)-1-((2R)-2-phenyl-2-(1-piperidinyl)acetyl)-2-pyrrolidinyl)-1H-imidazol-5-yl)-4-biphenylyl)-1H-imidazol-2-yl)-1-pyrrolidinyl)propyl)piperidine]",0.001 to 0.999 nM
14,"COC(=O)N[C@@H](C(=O)N(C)[C@@H](C)c1ncc(-c2ccc(-c3ccc(-c4cnc([C@@H]5CCCN5C(=O)[C@@H](c5ccccc5)N(C)C)[nH]4)cc3)cc2)[nH]1)c1ccccc1 [Example 131.1-1, methyl ((1R)-2-(((1S)-1-(5-(4′-(2-((2S)-1-((2R)-2-(dimethylamino)-2-phenylacetyl)-2-pyrrolidinyl)-1H-imidazol-5-yl)-4-biphenylyl)-1H-imidazol-2-yl)ethyl)(methyl)amino)-2-oxo-1-phenylethyl)carbamate]",0.001 to 0.999 nM
15,"CN(C)[C@@H](C(=O)N1CCC[C@H]1c1ncc(-c2ccc(-c3ccc(-c4cnc([C@@H]5CCCN5C(=O)Cc5ccsc5)[nH]4)cc3)cc2)[nH]1)c1ccccc1 [Example 94-48, (1R)-N,N-dimethyl-2-oxo-1-phenyl-2-((2S)-2-(5-(4′-(2-((2S)-1-(3-thienylacetyl)-2-pyrrolidinyl)-1H-imidazol-5-yl)-4-biphenylyl)-1H-imidazol-2-yl)-1-pyrrolidinyl)ethanamine]",0.001 to 0.999 nM
16,"CCN(CC)[C@@H](C(=O)N1CCC[C@H]1c1ncc(-c2ccc(-c3ccc(-c4cnc([C@@H]5CCCN5C(=O)[C@H]5CC[C@@H](N(CC)CC)CC5)[nH]4)cc3)cc2)[nH]1)c1ccccc1 [cj-73, cis-4-(((2S)-2-(5-(4′-(2-((2S)-1-((2R)-2-(diethylamino)-2-phenylacetyl)-2-pyrrolidinyl)-1H-imidazol-5-yl)-4-biphenylyl)-1H-imidazol-2-yl)-1-pyrrolidinyl)carbonyl)-N,N-diethylcyclohexanamine]",0.001 to 0.999 nM
17,"COC(=O)N[C@@H](C)C(=O)N1CCC[C@H]1c1nc(-c2ccc(-c3ccc(-c4[nH]c([C@@H]5CCCN5C(=O)[C@H](C)NC(=O)OC)nc4C)cc3)cc2)c(C)[nH]1 [Example E5k, methyl ((1S)-2-((2S)-2-(4-(4′-(2-((2S)-1-(N-(methoxycarbonyl)-L-alanyl)-2-pyrrolidinyl)-5-methyl-1H-imidazol-4-yl)-4-biphenylyl)-5-methyl-1H-imidazol-2-yl)-1-pyrrolidinyl)-1-methyl-2-oxoethyl)carbamate]",0.001 to 0.999 nM
18,"COC(=O)N[C@@H](C(=O)N1CCC[C@H]1c1ncc(-c2ccc(-c3ccc(-c4cnc([C@@H]5CCCN5C(=O)[C@@H](c5ccccc5)N5CCCCC5)[nH]4)cc3)cc2)[nH]1)c1ccccc1 [Example 84-1, methyl ((1R)-2-oxo-1-phenyl-2-((2S)-2-(5-(4′-(2-((2S)-1-((2R)-2-phenyl-2-(1-piperidinyl)acetyl)-2-pyrrolidinyl)-1H-imidazol-5-yl)-4-biphenylyl)-1H-imidazol-2-yl)-1-pyrrolidinyl)ethyl)carbamate]",0.001 to 0.999 nM
